What all share (type): physicochemical
Data set [1] in a line: Compatibility with cosmetics additives (absence of precipitates and/or severe discolorations). Particulars: Example 6B: up to 4 parts additive to 100 parts of 15% K sorbate, 30% Na benzoate, 5% phenoxyethanol, 50% water.
Assay in data set [2]: as above
Particulars: 18.75% water. The protocol:
(§1) To 100 parts by weight of a preparation consisting of 18.75% by weight of K sorbate, 31.25% by weight of phenoxyethanol, 31.25% by weight of benzyl alcohol and 18.75% by weight of demineralized water were added, in individual experiments, up to 4 parts by weight of a number of cosmetics additives, and the compatibility was tested (test for absence of precipitates and/or severe discolorations). […] The above-mentioned preparation was incompatible with the antimicrobial active ingredients Vantocil IB (polyhexamethylene biguanide), bronopol and dibromodicyanobutane since in each case the addition of these active ingredients and storage led to severe discoloration of the solution.
as §1, with “of 15%” for “of 18.75%”, “sorbate, 30%” for “sorbate, 31.25%”, “of Na benzoate, 5%” for “of phenoxyethanol, 31.25%”, “of phenoxyethanol” for “of benzyl alcohol”, “and 50%” for “and 18.75%”, “The abovementioned” for “The above-mentioned”
A preparation consisting of 18.75% by weight of K sorbate, 28.75% by weight of benzyl alcohol, 28.75% by weight of phenoxyethanol, 18.75% by weight of demineralized water and 5% by weight of cosmetics additive was prepared.

Data set [3] can be described thus: Colour stability, Hazen colour number. Particulars: addition to liquid concentrates, Examples 5D-5F. The protocol: The Hazen colour number is the number of mg of platinum [as potassium hexachloroplatinate (IV) containing cobalt (II) chloride hexahydrate in a ratio of 1.246:1 dissolved in 1000 ml of aqueous hydrochloric acid] which has virtually the same colour as the sample when the path length is the same.
Improvement in the Colour Stability of the Liquid Concentrates According to the Invention

Setting [4] is: Example 6A: up to 4 parts additive to 100 parts of 18.75% K sorbate, 31.25% phenoxyethanol, 31.25% benzyl alcohol.
Where [5] appears, read: Example 6C: 5% additive in 18.75% K sorbate, 28.75% benzyl alcohol, 28.75% phenoxyethanol.

Regarding `Cc1cc(C(C)(C)C)c(O)c(C(C)(C)C)c1` [2,6-di-tert-butyl-p-cresol], the “compatibility of additive with preparation” value (“compatibility of additive” for short) in data set [1] and in data set [2] (setting [4]) was “sufficiently compatible” throughout.
In the case of `OCCCc1ccccc1` [3-phenyl-1-propanol], the “compatibility of additive” value in data set [1] and in data set [2] (setting [4]) was “sufficiently compatible” throughout.
Take `COc1ccc(O)c(C(C)(C)C)c1` [3-tert-butyl-4-hydroxyanisole]: the “compatibility of additive” value in data set [1] and in data set [2] (setting [4]) was “sufficiently compatible” throughout.
Turning to `Cl/C=C\C[N+]12CN3CN(CN(C3)C1)C2.[Cl-]` [Dowicil 200], the “compatibility of additive” value in data set [2] (setting [5]) is “sufficiently compatible”.
For the compound `CC1(C)C(=O)N(CO)C(=O)N1CO` [Glydant XL 1000, 1,3-dimethylol-5,5-dimethylhydantoin], the “compatibility of additive” value in data set [1] and in data set [2] (setting [4]) was “sufficiently compatible” in each case.
For `O=C1O[C@H]([C@@H](O)CO)C(O)=C1O` [ascorbic acid], the “compatibility of additive” value in data set [1] and in data set [2] (setting [4]) was “sufficiently compatible” throughout.
For the compound `O=[N+]([O-])C(Br)(CO)CO` [bronopol], the “compatibility of additive” value in data set [1] and in data set [2] (setting [4]) was “incompatible” in each case.
For `CC(C)(CO)[C@@H](O)C(=O)NCCCO` [dexpanthenol], the “compatibility of additive” value in data set [1] and in data set [2] (setting [4]) was “sufficiently compatible” in each case.
`N#CCCC(Br)(C#N)CBr` (stereo not drawn) [dibromodicyanobutane]: the “compatibility of additive” value in data set [1] and in data set [2] (setting [4]) was “incompatible” throughout.
For `CCOC(=O)c1ccc(O)cc1` [ethylparaben], the “compatibility of additive” value in data set [1] and in data set [2] (setting [4]) was “sufficiently compatible” throughout.
For the compound `CC(C)=CCCC(C)=CCCC(C)=CCO` [farnesol], the “compatibility of additive” value in data set [1] and in data set [2] (setting [4]) was “sufficiently compatible” throughout.
For `CCCCNC(=O)OCC#CI` [iodopropynylbutyl carbamate], the “compatibility of additive” value in data set [1] and in data set [2] (setting [4]) was “sufficiently compatible” throughout.
In the case of `COC(=O)c1ccc(O)cc1` [methylparaben], in data set [2] (setting [5]), the “compatibility of additive” value is reported as “sufficiently compatible”.
Regarding `OCCc1ccccc1` [phenethyl alcohol], the “compatibility of additive” value in data set [1] and in data set [2] (setting [4]) was “sufficiently compatible” each time.
On to `O=C([O-])C(O)c1ccccc1.[K+]` (stereo not drawn) [potassium salt of mandelic acid], for which the “compatibility of additive” value in data set [1] and in data set [2] (setting [4]) was “sufficiently compatible” throughout.
Consider `CCCOC(=O)c1ccc(O)cc1` [propylparaben], for which the “compatibility of additive” value in data set [2] (setting [5]) is recorded as “sufficiently compatible”.
`O=C1O[C@H]([C@@H](O)CO)C([O-])=C1O.[Na+]` [sodium ascorbate]: the “compatibility of additive” value in data set [1] and in data set [2] (setting [4]) was “sufficiently compatible” each time.
For `O=C([O-])CC(O)(CC(=O)[O-])C(=O)[O-].[Na+].[Na+].[Na+]` [sodium citrate], the “effect of additive on colour stability” value in data set [3] is “significantly improves the colour stability”.
Take benzalkonium chloride: the “compatibility of additive” value in data set [1] and in data set [2] (setting [4]) was “sufficiently compatible” throughout.
With vitamin E, the “compatibility of additive” value in data set [1] and in data set [2] (setting [4]) was “sufficiently compatible” each time.

Values taken from US8197833B2, “Liquid concentrate for preserving cosmetics” (Air Liquide Sante (International), priority 1999, dated 2012).
